Laboratory results published in US20240100065A1, “METHODS FOR TREATING RECEPTOR-INTERACTING PROTEIN KINASE 1-MEDIATED DISEASES” (Genzyme Corporation, priority 2022, published 2024).

Assay: Concentration-ECG (QTcF, HR, PR, QRS) analysis from 24-hour Holter
Assay type: in vivo, human
Procedure: A thorough time-matched (TM∘) ECG parameters analysis in relation with SAR443820 concentrations on Day 1 (SAD-Part 1a) and on Day 14 (MAD Part 2) over 24 hours compared to the baseline prior the first dosing was performed on ECG extracted from 24-hour Holter data.
For Part 1a (SAD) and Part 2 (MAD), the concentration-ECG population will encompass all randomized participants treated by SAR443820 as long as they have at least 1 ECG assessment time-matched with a pharmacokinetic concentration (ECGs centrally read coming from 24-hours Holter ECG). Participants randomized in the placebo group will also be included in the Concentration-ECG population if they have at least 1 non missing change from baseline in ECG parameter. Exposure-response analyses between QTcF parameters (change from time-matched baseline in 24-hours Holter ECG data) and corresponding Compound 1 concentrations were performed using graphical tools and regression methods over 24 hours on Day 1 (SAD-Part 1a) or Day 14 (MAD-Part 2) post-dose. Predictions at selected concentrations were computed using a linear mixed effect model (see Am Heart J. 2014; 168(3):262-72. J Pharmacokinet Pharmacodyn. 2018; 45(3):383-97).

[1] = Part 1a Day 1, 10 mg, at Cmax 116.00 ng/ml
[2] = Part 1a Day 1, 20 mg, at Cmax 241.00 ng/ml
[3] = Part 1a Day 1, 30 mg, at Cmax 417.00 ng/ml
[4] = Part 1a Day 1, 40 mg, at Cmax 555.00 ng/ml
[5] = Part 2 Day 14, 10 mg QD, at Cmax 158.00 ng/ml
[6] = Part 2 Day 14, 15 mg BID, at Cmax 268.00 ng/ml
[7] = Part 2 Day 14, 20 mg BID, at Cmax 353.00 ng/ml
[8] = Part 2 Day 14, 20 mg QD, at Cmax 250.00 ng/ml

## CC(C)(C(=O)N1CCOc2c(C#N)cncc2C1)C(F)F [Compound 1, 4-(3,3-difluoro-2,2-dimethyl-propanoyl)-3,5-dihydro-2H-pyrido[3,4-f] [1,4]oxazepine-9-carbonitrile]
[1]
  Predicted delta Heart Rate vs placebo: −3.68 beats/min
  Predicted delta PR Interval vs placebo: 5.87 ms
  Predicted delta QRS Duration vs placebo: -0.04 ms
  Predicted delta QTcF interval vs placebo: -4.41 ms
[2]
  Predicted delta Heart Rate vs placebo: −2.62 beats/min
  Predicted delta PR Interval vs placebo: 6.70 ms
  Predicted delta QRS Duration vs placebo: 0.43 ms
  Predicted delta QTcF interval vs placebo: -3.88 ms
[3]
  Predicted delta Heart Rate vs placebo: −1.11 beats/min
  Predicted delta PR Interval vs placebo: 7.88 ms
  Predicted delta QRS Duration vs placebo: 1.10 ms
  Predicted delta QTcF interval vs placebo: -3.15 ms
[4]
  Predicted delta Heart Rate vs placebo: 0.06 beats/min
  Predicted delta PR Interval vs placebo: 8.80 ms
  Predicted delta QRS Duration vs placebo: 1.62 ms
  Predicted delta QTcF interval vs placebo: -2.57 ms
[5]
  Predicted delta Heart Rate vs placebo: 0.25 beats/min
  Predicted delta PR Interval vs placebo: -4.63 ms
  Predicted delta QRS Duration vs placebo: 2.52 ms
  Predicted delta QTcF interval vs placebo: -5.36 ms
[6]
  Predicted delta Heart Rate vs placebo: −0.26 beats/min
  Predicted delta PR Interval vs placebo: -4.53 ms
  Predicted delta QRS Duration vs placebo: 3.00 ms
  Predicted delta QTcF interval vs placebo: -3.74 ms
[7]
  Predicted delta Heart Rate vs placebo: −0.65 beats/min
  Predicted delta PR Interval vs placebo: -4.46 ms
  Predicted delta QRS Duration vs placebo: 3.37 ms
  Predicted delta QTcF interval vs placebo: -2.49 ms
[8]
  Predicted delta Heart Rate vs placebo: −0.18 beats/min
  Predicted delta PR Interval vs placebo: -4.55 ms
  Predicted delta QRS Duration vs placebo: 2.92 ms
  Predicted delta QTcF interval vs placebo: -4.01 ms
Single dose up to 40 mg, repeated dose up to 20 mg BID
  Effect on QTcF intervals: No clinically relevant dose-related effects
